Data: patent US9353084B2, “2-amino 3,5,5-trifluoro-3,4,5,6-tetrahydropyridines as BACE1 inhibitors for treatment of Alzheimer's disease” (H. Lundbeck A/S, priority 2014, dated 2016)

Each compound was assayed against human BACE1 (Homo sapiens (Human), UniProt P56817) (assay: BACE1 binding assay (SPA-based, radioligand displacement)). Conditions: pH 4.5, Ki calculated from IC50.
Experimental: The binding assay was performed as SPA-based assay using a biotinylated form of human BACE1 recombinantly expressed and subsequently purified from Freestyle HEK293 cells. The binding assay was run in a 50 mM sodium acetate buffer, pH 4.5 containing 50 mM NaCl and 0.03% Tween-20 in white clear bottom 384 plates (Corning #3653). 10 nM (final concentration) radioligand ([^3H]—N-((1S,2R)-1-benzyl-3-cyclopropylamino-2-hydroxy-propyl)-5-(methanesulfonyl-methyl-amino)-N—((R)-1-phenyl-ethyl)-isophthalamide) (TRQ11569 purchased from GE Healthcare) was mixed with test compound at a given concentration, 6 nM (final concentration) human BACE1 and 25 μg Streptavidin coated PVT core SPA beads (RPNQ0007, GE Healthcare Life Sciences) in a total volume of 40 μl. Several concentrations of each test compound were tested in the assay for IC50 determination. The plates were incubated for one hour at room temperature and counted in a Wallac Trilux counter. Total and non-specific binding were determined using buffer and 1 μM (final concentration) of the high affinity BACE1 reference inhibitor (S)-6-[3-chloro-5-(5-prop-1-ynyl-pyridin-3-yl)-thiophen-2-yl]-2-imino-3,6-dimethyl-tetrahydro-pyrimidin-4-one, respectively. For each test compound, a IC50 value (the concentration mediating 50% inhibition of the specific binding of the radioligand) was determined from concentration-response curve and used to calculate the Ki from the equation Ki=IC50/(1+L/Kd), where L and Kd are the final concentration of the radioligand used in the assay and the dissociation constant of the radioligand, respectively. The Kd of the radioligand was determined from saturation binding experiments.

Chain of human BACE1 (P56817 46-501): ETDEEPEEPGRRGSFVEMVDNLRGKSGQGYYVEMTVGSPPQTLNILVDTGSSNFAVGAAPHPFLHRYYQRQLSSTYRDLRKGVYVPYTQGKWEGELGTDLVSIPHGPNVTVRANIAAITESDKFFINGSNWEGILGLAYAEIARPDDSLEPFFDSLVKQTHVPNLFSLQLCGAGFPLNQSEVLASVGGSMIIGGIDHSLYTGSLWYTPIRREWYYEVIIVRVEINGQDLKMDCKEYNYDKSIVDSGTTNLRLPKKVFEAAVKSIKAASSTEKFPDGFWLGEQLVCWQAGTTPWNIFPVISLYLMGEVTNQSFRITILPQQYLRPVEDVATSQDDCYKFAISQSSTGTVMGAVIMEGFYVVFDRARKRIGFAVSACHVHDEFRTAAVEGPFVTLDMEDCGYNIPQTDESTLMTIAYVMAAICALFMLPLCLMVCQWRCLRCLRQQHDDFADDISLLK

In order of falling Ki:
1. Cn1ccc(C(=O)Nc2ccc(F)c([C@@]3(C)N=C(N)[C@](C)(F)CC3(F)F)c2)n1 [Compound 39, N-(3-((2R,5R)-6-amino-3,3,5-trifluoro-2,5-dimethyl-2,3,4,5-tetrahydropyridin-2-yl)-4-fluorophenyl)-1-methyl-1H-pyrazole-3-carboxamide]  4800 nM
2. Cc1nc(C(=O)Nc2ccc(F)c([C@@]3(C)N=C(N)[C@](C)(F)CC3(F)F)c2)no1 [Compound 35, N-(3-((2R,5R)-6-amino-3,3,5-trifluoro-2,5-dimethyl-2,3,4,5-tetrahydropyridin-2-yl)-4-fluorophenyl)-5-methyl-1,2,4-oxadiazole-3-carboxamide]  680 nM
3. C[C@@]1(F)CC(F)(F)[C@@](C)(c2cc(NC(=O)c3nccs3)ccc2F)N=C1N [Compound 36, N-(3-((2R,5R)-6-amino-3,3,5-trifluoro-2,5-dimethyl-2,3,4,5-tetrahydropyridin-2-yl)-4-fluorophenyl)thiazole-2-carboxamide]  390 nM
4. C[C@@]1(F)CC(F)(F)[C@@](C)(c2cc(NC(=O)c3ccc(F)cn3)ccc2F)N=C1N [Compound 2, N-(3-((2R,5R)-6-amino-3,3,5-trifluoro-2,5-dimethyl-2,3,4,5-tetrahydropyridin-2-yl)-4-fluorophenyl)-5-fluoropicolinamide]  210 nM
5. C[C@@]1(F)CC(F)(F)[C@@](C)(c2cc(NC(=O)c3ccc(C(F)(F)F)cn3)ccc2F)N=C1N [Compound 28, N-(3-((2R,5R)-6-amino-3,3,5-trifluoro-2,5-dimethyl-2,3,4,5-tetrahydropyridin-2-yl)-4-fluorophenyl)-5-(trifluoromethyl)picolinamide]  170 nM
6. COc1cnc(C(=O)Nc2ccc(F)c([C@@]3(C)N=C(N)[C@](C)(F)CC3(F)F)c2)nc1 [Compound 26, N-(3-((2R,5R)-6-amino-3,3,5-trifluoro-2,5-dimethyl-2,3,4,5-tetrahydropyridin-2-yl)-4-fluorophenyl)-5-methoxypyrimidine-2-carboxamide]  130 nM
7. [2H]C([2H])([2H])Oc1ccc(C(=O)Nc2ccc(F)c([C@@]3(C)N=C(N)[C@](C)(F)CC3(F)F)c2)nc1 [Compound 43, N-(3-((2R,5R)-6-amino-3,3,5-trifluoro-2,5-dimethyl-2,3,4,5-tetrahydropyridin-2-yl)-4-fluorophenyl)-5-(methoxy-d3)picolinamide]  91 nM
8. C[C@]1(F)CC(F)(F)[C@@](C)(c2cc(NC(=O)c3ccc(C(F)(F)F)cn3)ccc2F)N=C1N [Compound 11, N-(3-((2R,5S)-6-amino-3,3,5-trifluoro-2,5-dimethyl-2,3,4,5-tetrahydropyridin-2-yl)-4-fluorophenyl)-5-(trifluoromethyl)picolinamide]  63 nM
9. Cc1cc(F)cnc1C(=O)Nc1ccc(F)c([C@@]2(C)N=C(N)[C@@](C)(F)CC2(F)F)c1 [Compound 49, N-(3-((2R,5S)-6-amino-3,3,5-trifluoro-2,5-dimethyl-2,3,4,5-tetrahydropyridin-2-yl)-4-fluorophenyl)-5-fluoro-3-methylpicolinamide]  60 nM
10. C[C@@]1(F)CC(F)(F)[C@@](C)(c2cc(NC(=O)c3ccc(C#N)cn3)ccc2F)N=C1N [Compound 32, N-(3-((2R,5R)-6-amino-3,3,5-trifluoro-2,5-dimethyl-2,3,4,5-tetrahydropyridin-2-yl)-4-fluorophenyl)-5-cyanopicolinamide]  51 nM
11. C[C@]1(F)CC(F)(F)[C@@](C)(c2cc(NC(=O)c3nc(CF)co3)ccc2F)N=C1N [Compound 14, N-(3-((2R,5S)-6-amino-3,3,5-trifluoro-2,5-dimethyl-2,3,4,5-tetrahydropyridin-2-yl)-4-fluorophenyl)-4-(fluoromethyl)oxazole-2-carboxamide]  37 nM
12. Cc1nc(C(=O)Nc2ccc(F)c([C@@]3(C)N=C(N)[C@@](C)(F)CC3(F)F)c2)co1 [Compound 7, N-(3-((2R,5S)-6-amino-3,3,5-trifluoro-2,5-dimethyl-2,3,4,5-tetrahydropyridin-2-yl)-4-fluorophenyl)-2-methyloxazole-4-carboxamide]  33 nM
13. COc1cnc(C(=O)Nc2ccc(F)c([C@@]3(C)N=C(N)[C@@](C)(F)CC3(F)F)c2)c(C)n1 [Compound 19, N-(3-((2R,5S)-6-amino-3,3,5-trifluoro-2,5-dimethyl-2,3,4,5-tetrahydropyridin-2-yl)-4-fluorophenyl)-5-methoxy-3-methylpyrazine-2-carboxamide]  32 nM
14. COc1cnc(C(=O)Nc2ccc(F)c([C@@]3(C)N=C(N)[C@@](C)(F)CC3(F)F)c2)c(F)c1 [Compound 46, N-(3-((2R,5S)-6-amino-3,3,5-trifluoro-2,5-dimethyl-2,3,4,5-tetrahydropyridin-2-yl)-4-fluorophenyl)-3-fluoro-5-methoxypicolinamide]  14 nM
15. C[C@]1(F)CC(F)(F)[C@@](C)(c2cc(NC(=O)c3ccc(C#N)cn3)ccc2F)N=C1N [Compound 4, N-(3-((2R,5S)-6-amino-3,3,5-trifluoro-2,5-dimethyl-2,3,4,5-tetrahydropyridin-2-yl)-4-fluorophenyl)-5-cyanopicolinamide]  11 nM
